From US10550142B2, “Quercetin-based compound” (AMOREPACIFIC CORPORATION, priority 2016, dated 2020)

Tested on: skin
Experiment: Cumulative skin irritation test, HRIPT (human repeated insult patch test)
Format: in vivo
Parameters: key to skin reactivity (ICDRG criteria): −: Negative (no reaction); ±: Suspicious or slight erythema, etc.; +: Weak reaction (not accompanied by vesicles), erythema, papules; ++: Severe reaction (accompanied by vesicles), erythema, papules, vesicles; +++: Strong reaction, bullae
Conditions: for Number of subjects showing ±, + or ++ reactivity 1st: 1st patch; for Number of subjects showing ±, + or ++ reactivity 2nd: 2nd patch; for Number of subjects showing ±, + or ++ reactivity 3rd: 3rd patch; for Number of subjects showing ±, + or ++ reactivity 4th: 4th patch; for Number of subjects showing ±, + or ++ reactivity 5th: 5th patch; for Number of subjects showing ±, + or ++ reactivity 6th: 6th patch; for Number of subjects showing ±, + or ++ reactivity 7th: 7th patch; for Number of subjects showing ±, + or ++ reactivity 8th: 8th patch; for Number of subjects showing ±, + or ++ reactivity 9th: 9th patch; for Average reactivity: less than 3 = safe
Protocol: HRIPT (human repeated insult patch test) was performed to evaluate the cumulative skin irritation of quercetin 3-O-[3-O″-(E)-p-coumaroyl][β-D-glucopyranosyl-(1→3)-O-α-L-rhamnopyranosyl-(1→6)-O-β-D-glucopyranoside] and quercetin 3-O-[3-O″-(E)-p-coumaroyl][α-L-rhamnopyranosyl-(1→6)-O-β-D-glucopyranoside] and determine the range of concentration applicable to the skin. Specifically, 15 healthy adult subjects were randomly selected, and 20 μl of a test composition (composition for the skin including an emulsifier, a stabilizer, purified water, etc. in addition to each of the above compounds) containing 0.5% by weight, 1% by weight or 3% by weight of each of the compounds was dropped into each chamber (IQ chamber, Epitest Ltd, Finland) The patch was applied to the upper right side of the back of the subject, and after 24 hours from the application, it was replaced with a new patch. In this way, a total of 9 patches were applied, 3 times a week for 3 weeks. The skin reaction was checked before and after application of each patch. The skin reaction was checked until after 48 hours from the removal of the final patch, and the average reactivity was calculated. The skin reaction was evaluated according to the criteria of the International Contact Dermatitis Research Group (ICDRG). In the above table, “novel substance 31” denotes quercetin 3-O-[3-O″-(E)-p-coumaroyl][β-D-glucopyranosyl-(1→3)-O-α-L-rhamnopyranosyl-(1→6)-O-β-D-glucopyranoside], and “novel substance 32” denotes quercetin 3-O-[3-O″-(E)-p-coumaroyl][α-L-rhamnopyranosyl-(1→6)-O-β-D-glucopyranoside.

[1] = 0.5% by weight, line 1 of 3 (±)
[2] = 0.5% by weight, line 2 of 3 (+)
[3] = 0.5% by weight, line 3 of 3 (++)

## CC1OC(OCC2OC(Oc3c(-c4ccc(O)c(O)c4)oc4cc(O)cc(O)c4c3=O)C(O)C(OC(=O)/C=C/c3ccc(O)cc3)C2O)C(O)C(O)C1O [Novel substance 32, quercetin 3-O-[3-O″-(E)-p-coumaroyl][α-L-rhamnopyranosyl-(1→6)-O-β-D-glucopyranoside]]
[1]
  Number of subjects showing ±, + or ++ reactivity 1st: 0 number of persons
  Number of subjects showing ±, + or ++ reactivity 2nd: 0 number of persons
  Number of subjects showing ±, + or ++ reactivity 3rd: 0 number of persons
  Number of subjects showing ±, + or ++ reactivity 4th: 0 number of persons
  Number of subjects showing ±, + or ++ reactivity 5th: 0 number of persons
  Number of subjects showing ±, + or ++ reactivity 6th: 0 number of persons
  Number of subjects showing ±, + or ++ reactivity 7th: 0 number of persons
  Number of subjects showing ±, + or ++ reactivity 8th: 0 number of persons
  Number of subjects showing ±, + or ++ reactivity 9th: 0 number of persons
[2]
  Number of subjects showing ±, + or ++ reactivity 1st: 0 number of persons
  Number of subjects showing ±, + or ++ reactivity 2nd: 0 number of persons
  Number of subjects showing ±, + or ++ reactivity 3rd: 0 number of persons
  Number of subjects showing ±, + or ++ reactivity 4th: 0 number of persons
  Number of subjects showing ±, + or ++ reactivity 5th: 0 number of persons
  Number of subjects showing ±, + or ++ reactivity 6th: 0 number of persons
  Number of subjects showing ±, + or ++ reactivity 7th: 0 number of persons
  Number of subjects showing ±, + or ++ reactivity 8th: 0 number of persons
  Number of subjects showing ±, + or ++ reactivity 9th: 0 number of persons
[3]
  Number of subjects showing ±, + or ++ reactivity 1st: 0 number of persons
  Number of subjects showing ±, + or ++ reactivity 2nd: 0 number of persons
  Number of subjects showing ±, + or ++ reactivity 3rd: 0 number of persons
  Number of subjects showing ±, + or ++ reactivity 4th: 0 number of persons
  Number of subjects showing ±, + or ++ reactivity 5th: 0 number of persons
  Number of subjects showing ±, + or ++ reactivity 6th: 0 number of persons
  Number of subjects showing ±, + or ++ reactivity 7th: 0 number of persons
  Number of subjects showing ±, + or ++ reactivity 8th: 0 number of persons
  Number of subjects showing ±, + or ++ reactivity 9th: 0 number of persons
0.5% by weight
  Average reactivity: 0
1% by weight, line 1 of 3 (±)
  Number of subjects showing ±, + or ++ reactivity 1st: 0 number of persons
  Number of subjects showing ±, + or ++ reactivity 2nd: 0 number of persons
  Number of subjects showing ±, + or ++ reactivity 3rd: 0 number of persons
  Number of subjects showing ±, + or ++ reactivity 4th: 0 number of persons
  Number of subjects showing ±, + or ++ reactivity 5th: 0 number of persons
  Number of subjects showing ±, + or ++ reactivity 6th: 0 number of persons
  Number of subjects showing ±, + or ++ reactivity 7th: 0 number of persons
  Number of subjects showing ±, + or ++ reactivity 8th: 0 number of persons
  Number of subjects showing ±, + or ++ reactivity 9th: 0 number of persons
1% by weight, line 2 of 3 (+)
  Number of subjects showing ±, + or ++ reactivity 1st: 0 number of persons
  Number of subjects showing ±, + or ++ reactivity 2nd: 0 number of persons
  Number of subjects showing ±, + or ++ reactivity 3rd: 0 number of persons
  Number of subjects showing ±, + or ++ reactivity 4th: 0 number of persons
  Number of subjects showing ±, + or ++ reactivity 5th: 0 number of persons
  Number of subjects showing ±, + or ++ reactivity 6th: 0 number of persons
  Number of subjects showing ±, + or ++ reactivity 7th: 0 number of persons
  Number of subjects showing ±, + or ++ reactivity 8th: 0 number of persons
  Number of subjects showing ±, + or ++ reactivity 9th: 0 number of persons
1% by weight, line 3 of 3 (++)
  Number of subjects showing ±, + or ++ reactivity 1st: 0 number of persons
  Number of subjects showing ±, + or ++ reactivity 2nd: 0 number of persons
  Number of subjects showing ±, + or ++ reactivity 3rd: 0 number of persons
  Number of subjects showing ±, + or ++ reactivity 4th: 0 number of persons
  Number of subjects showing ±, + or ++ reactivity 5th: 0 number of persons
  Number of subjects showing ±, + or ++ reactivity 6th: 0 number of persons
  Number of subjects showing ±, + or ++ reactivity 7th: 0 number of persons
  Number of subjects showing ±, + or ++ reactivity 8th: 0 number of persons
  Number of subjects showing ±, + or ++ reactivity 9th: 0 number of persons
1% by weight
  Average reactivity: 0
3% by weight, line 1 of 3 (±)
  Number of subjects showing ±, + or ++ reactivity 1st: 0 number of persons
  Number of subjects showing ±, + or ++ reactivity 2nd: 0 number of persons
  Number of subjects showing ±, + or ++ reactivity 3rd: 0 number of persons
  Number of subjects showing ±, + or ++ reactivity 4th: 0 number of persons
  Number of subjects showing ±, + or ++ reactivity 5th: 0 number of persons
  Number of subjects showing ±, + or ++ reactivity 6th: 0 number of persons
  Number of subjects showing ±, + or ++ reactivity 7th: 0 number of persons
  Number of subjects showing ±, + or ++ reactivity 8th: 0 number of persons
  Number of subjects showing ±, + or ++ reactivity 9th: 0 number of persons
3% by weight, line 2 of 3 (+)
  Number of subjects showing ±, + or ++ reactivity 1st: 0 number of persons
  Number of subjects showing ±, + or ++ reactivity 2nd: 0 number of persons
  Number of subjects showing ±, + or ++ reactivity 3rd: 0 number of persons
  Number of subjects showing ±, + or ++ reactivity 4th: 0 number of persons
  Number of subjects showing ±, + or ++ reactivity 5th: 0 number of persons
  Number of subjects showing ±, + or ++ reactivity 6th: 0 number of persons
  Number of subjects showing ±, + or ++ reactivity 7th: 0 number of persons
  Number of subjects showing ±, + or ++ reactivity 8th: 0 number of persons
  Number of subjects showing ±, + or ++ reactivity 9th: 0 number of persons
3% by weight, line 3 of 3 (++)
  Number of subjects showing ±, + or ++ reactivity 1st: 0 number of persons
  Number of subjects showing ±, + or ++ reactivity 2nd: 0 number of persons
  Number of subjects showing ±, + or ++ reactivity 3rd: 0 number of persons
  Number of subjects showing ±, + or ++ reactivity 4th: 0 number of persons
  Number of subjects showing ±, + or ++ reactivity 5th: 0 number of persons
  Number of subjects showing ±, + or ++ reactivity 6th: 0 number of persons
  Number of subjects showing ±, + or ++ reactivity 7th: 0 number of persons
  Number of subjects showing ±, + or ++ reactivity 8th: 0 number of persons
  Number of subjects showing ±, + or ++ reactivity 9th: 0 number of persons
3% by weight
  Average reactivity: 0
Within the content range 0.5, 1, 3% by weight, 9 patches, 15 subjects
  skin reactivity (ICDRG criteria): −
